In patent publication US9102669B2, “Substituted piperidinyl-pyridazinyl derivatives useful as SCD 1 inhibitors” (Janssen Pharmaceutica NV, priority 2011, dated 2015):
Where “and” joins values, the source holds several entries; their conditions need not be identical. Equal entries are not always repeated. Where two headings read alike, the source gives them in different places.

Experiments:
SCD1 [1] = target: SCD1 (Rattus norvegicus (Rat), UniProt P07308); test: SCD1 enzymatic assay in rat liver microsomes (RLM); assay type: biochemical; settings: for inhibition at 1 µM: read-out: % Inh.@ 1 μM
Outline: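 Microsomes from livers of Sprague Dawley rats after fast/fat-free re-feeding cycles (10 μg per reaction) were incubated 2 h at room temperature with 20 μM stearoyl-CoA plus ^3H-stearoyl-CoA (2 μCi/mL), ATP, CoA, NADH and glutathione in 0.1 M K-phosphate, with compound. Reactions were acid-stopped and charcoal-treated; radioactivity was counted and fitted to a sigmoidal dose-response curve.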

SCD1 [2] = target: T1, SCD1 (Homo sapiens (Human), UniProt O00767); test: SCD1 14C-palmitate assay in A431 cells; assay type: cell-based; settings: read-out: A431 cells 14C-PA IC50
Description: Human epithelial carcinoma A431 cells were seeded at 400,000 cells per well in 48-well tissue culture plate and treated with 2 cycles of fasting in low glucose medium (DMEM, Cellgro#10-014-CV, 1 g/L glucose, 2% Charcoal Filtered FBS) for 24 hours; and re-feeding with high glucose medium for 24 hours (DMEM, Cellgro#10-013-CM, 4.5 g/L glucose, 10% Charcoal Filtered FBS and 0.05 mg/mL Lilly Humulin R, Cat.#, HI-210). Prior to running the assay, the cells were washed twice with high glucose medium (400 μL), followed by addition of 250 μL assay buffer (DMEM, 4.5 g/L glucose, 0.05 mg/mL Human Insulin, 0.1% Fatty Acid Free BSA) to each well. Then, 100 μL of assay buffer containing 20 μM Palmitic Acid, 0.05 μCi ^14C Palmitic Acid (Perkin Elmer, NEC075H) and test compound (at selected concentration) was added to each well. The cells were then Incubated at 37° C. and 5% CO2 tissue culture incubator for 4 hours, followed by extensive washes with pre-chilled PBS. The cell plates were then frozen at −20° C. overnight. After thawing out the plates, 100 μL of 1N KOH was added to each well and the plates were incubated at 37° C. for 30 mins. Cell lysates were transferred to 1 mL Eppendorf tubes and incubated at 95° C. for 1 hour, followed by addition of 10 μL formic acid and 220 μL acetonitrile. The tubes were then centrifuged at 12,000 rpm and the supernatant dried under N2 for 2-3 hours. Dried extract was re-suspended in 60 μL hexane and loaded onto TLC plates (pre-coated with 10% AgNO3 in acetonitrile). The TLC plates were placed into glass running chamber containing 200 mL running solution (100 mL running solution: 92.5 mL chloroform, 6 mL methanol, 750 μL acetic acid, 750 μL dH2O). After running, the TLC plates were air dried and scanned on Bioscan AR-2000 for quantification of ^14C-palmitioleate and ^14C-palmitate peaks. Area under the curve of the peaks were used to calculate product/substrate ratio, an index of SCD1 activity.

SCD1 [3] = target: T1, SCD1; test: SCD1 13C-palmitic acid assay in A431 cells; assay type: cell-based; settings: read-out: A431 cells 13C-PA IC50
Outline: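 A431 cells with 0.05 mg/mL human insulin in 0.1% fatty-acid-free BSA assay medium; 4 h incubation at 37 °C before KOH saponification with D4-palmitate internal standard.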

[4] = 10-day diet-induced obese C57bl/6 mice study, body weight change; assay type: in vivo, mouse; design: unit not given here; settings: DIO C57BL/6J mice, oral 30 mg/kg once a day, after 10 days of treatment
Description: Male DIO C57BL/6J mice from Taconic were maintained on high fat diet D12492 containing 60% kCal of mostly saturated fats (Research Diets Inc.) for 4 week from 6-week old. Test compounds were prepared in 0.5% hydroxypropyl methyl cellulose for oral dosing at 30 mg/kg once a day. After 10-days of treatment, body weight change was recorded.
Representative compounds of the present invention were tested according to the procedure as described above, with results as listed in Table 7, below. In the results presented below, * indicates a calculated p value <0.05 vs. vehicle-treated group.

[5] = 1 μM test compound, rat liver microsomes

Chain of SCD1 (Rattus norvegicus (Rat), UniProt P07308) (P07308 whole entry): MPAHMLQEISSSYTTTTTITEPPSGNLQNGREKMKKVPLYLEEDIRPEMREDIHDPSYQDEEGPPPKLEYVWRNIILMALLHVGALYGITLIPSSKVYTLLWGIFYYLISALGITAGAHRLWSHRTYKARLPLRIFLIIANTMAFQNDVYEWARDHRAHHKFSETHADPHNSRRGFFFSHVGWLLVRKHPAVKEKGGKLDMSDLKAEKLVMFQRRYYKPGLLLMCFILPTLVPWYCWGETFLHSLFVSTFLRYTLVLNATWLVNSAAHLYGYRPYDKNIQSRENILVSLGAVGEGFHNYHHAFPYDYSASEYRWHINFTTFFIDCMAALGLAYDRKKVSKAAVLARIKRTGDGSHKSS
T1 sequence (O00767 whole entry): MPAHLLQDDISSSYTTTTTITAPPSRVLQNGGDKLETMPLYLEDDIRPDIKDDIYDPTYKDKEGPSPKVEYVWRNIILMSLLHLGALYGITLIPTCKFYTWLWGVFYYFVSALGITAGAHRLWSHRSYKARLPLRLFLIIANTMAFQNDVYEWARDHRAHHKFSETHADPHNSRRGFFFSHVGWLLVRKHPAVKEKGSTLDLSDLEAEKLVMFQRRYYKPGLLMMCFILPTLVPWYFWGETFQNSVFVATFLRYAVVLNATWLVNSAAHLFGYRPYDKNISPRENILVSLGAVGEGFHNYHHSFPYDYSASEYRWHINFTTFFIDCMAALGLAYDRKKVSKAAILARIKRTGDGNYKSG

| SMILES | inhibition at 1 µM (SCD1 [1]; [5]) | IC50 (SCD1 [1]; rat liver microsomes) | IC50 (SCD1 [2]) | IC50 (SCD1 [3]) | % Inh.@ 1 μM (SCD1 [1]; [5]) | body weight change [4] | inhibition at 1 µM (SCD1 [1]) |
| --- | --- | --- | --- | --- | --- | --- | --- |
| Cn1cc(-c2ccc(N3CCC(c4noc5ccc(F)cc45)CC3)nn2)cn1 [Compound #3, 5-fluoro-3-(1-(6-(1-methyl-1 H-pyrazol-4-yl)pyridazin-3-yl)piperidin-4-yl)benzo[d]isoxazole] | 87% | 126 nM | 377 nM | – | – | – | – |
| Cc1cn(-c2ccc(N3CCC(N4CCc5ccc(F)cc54)CC3)nn2)cn1 [Compound #4, 6-fluoro-1-(1-(6-(4-methyl-1H-imidazol-1-yl)pyridazin-3-yl)piperidin-4-yl)indoline] | 95% | – | 68 nM | 9 nM | 93% | – | – |
| Cc1nsc(-c2ccc(N3CCC(n4ccc5ccccc54)CC3)nn2)n1 [Compound #6, 5-(6-(4-(1H-indol-1-yl)piperidin-1-yl)pyridazin-3-yl)-3-methyl-1,2,4-thiadiazole] | 79% | 34 nM | 62 nM and 102 nM | – | – | – | – |
| Cc1nsc(-c2ccc(N3CCC(N4CCc5ccccc54)CC3)nn2)n1 [Compound #7, 5-(6-(4-(indolin-1-yl)piperidin-1-yl)pyridazin-3-yl)-3-methyl-1,2,4-thiadiazole] | 95% | 14 nM | 24 nM | – | – | – | – |
| Cc1nsc(-c2ccc(N3CCC(N4CCc5ccc(F)cc54)CC3)nn2)n1 [Compound #12, 5-(6-(4-(6-fluoroindolin-1-yl)piperidin-1-yl)pyridazin-3-yl)-3-methyl-1,2,4-thiadiazole] | 95% | 11 nM | 362 nM | – | 97% | – | – |
| OCc1cnn(-c2ccc(N3CCC(N4CCc5ccc(F)cc54)CC3)nn2)c1 [Compound #22] | – | 22 nM and 11 nM | – | 7 nM and 5 nM | – | 1.2 ± 0.3 * | 98% |
| OCc1ccc(-c2ccc(N3CCC(N4CCc5ccc(F)cc54)CC3)nn2)cn1 [Compound #39] | 99% | 9 nM | – | 0.5 nM | – | −2.2 ± 0.5 * | – |
| Cn1cc(-c2ccc(N3CCC(n4ncc5ccc(F)cc54)CC3)nn2)cn1 [Compound #47, 6-fluoro-1-(1-(6-(1-methyl-1H-pyrazol-4-yl)pyridazin-3-yl)piperidin-4-yl)-1H-indazole] | – | – | – | 69 nM and 33 nM | – | −3.3 ± 0.5 * | – |
| OCCn1cc(-c2ccc(N3CCC(N4CCc5ccc(F)cc54)CC3)nn2)cn1 [Compound #49, 2-(4-(6-(4-(6-fluoroindolin-1-yl)piperidin-1-yl)pyridazin-3-yl)-1H-pyrazol-1-yl)ethanol] | 95% | 25 nM and 19 nM | – | 21 nM and 22 nM | 91% | 0.5 ± 0.1 * | – |
| NNC(=O)c1ccc(N2CCC(c3noc4ccc(F)cc34)CC2)nn1 [Compound I1, 6-(4-(5-fluorobenzo[d]isoxazol-3-yl)piperidin-1-yl)pyridazine-3-carbohydrazide] | 100% | 59 nM | 3060 nM | > 3000 nM | – | – | – |
| Fc1ccc2onc(C3CCN(c4ccc(-c5cccnc5)nn4)CC3)c2c1 [compound 8, 5-fluoro-3-(1-(6-(pyridin-3-yl)pyridazin-3-yl)piperidin-4-yl)benzo[d]isoxazote] | 86% | 165 nM | 577 nM | – | – | – | – |
| Cc1cn(-c2ccc(N3CCC(c4noc5cc(F)ccc45)CC3)nn2)cn1 [compound 89, 6-fluoro-3-(1-(6-(4-methyl-1H-imidazol-1-yl)pyridazin-3-yl)piperidin-4-yl)benzo[d]isoxazole] | 88% | 257 nM | 691 nM | – | – | – | – |

The remaining molecules from weak to strong by IC50 (SCD1 [1]; rat liver microsomes), led by results:

| inhibition at 1 µM (SCD1 [1]; [5]) | IC50 (SCD1 [1]; rat liver microsomes) | IC50 (SCD1 [2]) | SMILES | IC50 (SCD1 [3]) | % Inh.@ 1 μM (SCD1 [1]; [5]) | body weight change [4] | inhibition at 1 µM (SCD1 [1]) |
| --- | --- | --- | --- | --- | --- | --- | --- |
| 81% | 422 nM | 359 nM | Cn1cc(-c2ccc(N3CCC(n4ccc5ccccc54)CC3)nn2)cn1 [Compound #9, 1-(1-(6-(1-methyl-1H-pyrazol-4-yl)pyridazin-3-yl)piperidin-4-yl)-1H-indole] | – | – | – | – |
| 84% | 394 nM | 383 nM | Cn1cc(-c2ccc(N3CCC(N4CCc5ccccc54)CC3)nn2)cn1 [Compound #10, 1-(1-(6-(1-methyl-1H-pyrazol-4-yl)pyridazin-3-yl)piperidin-4-yl)indoline] | – | – | – | – |
| 85% | 156 nM | 157 nM | Fc1ccc2onc(C3CCN(c4ccc(-n5ccnc5)nn4)CC3)c2c1 [compound 84, 3-(1-(6-(1H-imidazol-1-yl)pyridazin-3-yl)piperidin-4-yl)-5-fluorobenzo[d]isoxazole] | – | – | – | – |
| 79% | 126 nM | 63 nM | Cc1ccn(-c2ccc(N3CCC(c4noc5ccc(F)cc45)CC3)nn2)n1 [compound 92, 5-fluoro-3-(1-(6-(3-methyl-1H-pyrazol-1-yl)pyridazin-3-yl)piperidin-4-yl)benzo[d]isoxazole] | – | – | – | – |
| 84% | 86 nM | 116 nM | Cc1cn(-c2ccc(N3CCC(n4ccc5ccccc54)CC3)nn2)cn1 [compound 88, 1-(1-(6-(4-methyl-1H-imidazol-1-yl)pyridazin-3-yl)piperidin-4-yl)-1H-indole] | – | – | – | – |
| 86% | 76 nM | 257 nM | Cc1cn(-c2ccc(N3CCC(N4CCc5ccccc54)CC3)nn2)cn1 [Compound #1, 1-(1-(6-(4-methyl-1H-imidazol-1-yl)pyridazin-3-yl)piperidin-4-yl)indoline] | – | – | – | – |
| 89% | 68 nM | 139 nM | Cc1nsc(-c2ccc(N3CCC(c4noc5ccc(F)cc45)CC3)nn2)n1 [Compound #5, 5-fluoro-3-(1-(6-(3-methyl-1,2,4-thiadiazol-5-yl)pyridazin-3-yl)piperidin-4-yl)benzo[d]isoxazole] | – | – | – | – |
| 97% | 65 nM | 148 nM | Cc1cn(-c2ccc(N3CCC(c4noc5ccc(F)cc45)CC3)nn2)cn1 [compound 85, 5-fluoro-3-(1-(6-(4-methyl-1H-imidazol-1-yl)pyridazin-3-yl)piperidin-4-yl)benzo[d]isoxazole] | – | – | – | – |
| 88% | 60 nM | – | OCCc1cnn(-c2ccc(N3CCC(c4noc5ccc(F)cc45)CC3)nn2)c1 [compound 98, 2-(1-(6-(4-(5-fluorobenzo[d]isoxazol-3-yl)piperidin-1-yl)pyridazin-3-yl)-1H-pyrazol-4-yl)ethanol] | 12 nM | – | – | – |
